This is an account of results in patent US20070281046A1, “Method for removing organic contaminants from Chinese herb medicines” (Committee on Chinese Medicine and Pharmacy, Department of …, priority 2006, published 2007).

Data set [1] can be described thus: PCNB concentration after gamma irradiation in samples of P. quinquefolium and in methanol solution. To be noted: for concentration of the remaining PCNB / concentration of the remaining PCNB as compared to before treatment: 2 ppm PCNB in methanol solution. Format: physicochemical.
Data set [2] in a line: Concentration of marker components (ginsenosides) in P. quinquefolium samples after gamma irradiation (HPLC). It is filed as physicochemical. The following applies: for concentration of marker components of P. quinquefolium (ginsenoside): mean ± SD, three repeats; for effect of gamma irradiation on concentration of marker components: 10 kGy and 15 kGy gamma irradiation, P. quinquefolium samples. The procedure: Samples of P. quinquefolium that have respectively received gamma irradiation in dosages of 0, 10, 15, and 20 kGy were analyzed to find out the concentration of marker components therein, with the samples that have not received gamma irradiation as the control group. To extract marker components from the samples for analysis, 10 g of the samples were taken and prepared in 50 ml of 70% aqueous methanol solution, and heated in a convection heater at 60° C. for 15 minutes, followed by centrifugation in order to obtain the extract solution. Subsequently, the residual of the samples were subjected to the above-mentioned procedure again, and the extracted solution from the two rounds of procedures were mixed together and filtered, followed by the addition of 70% aqueous methanol solution to bring the volume up to 100 ml; the resulted solution was then stored at −20° C. and analyzed within 3 days. Before carrying out the analysis of ingredients, an adequate amount of the resulted solution was underwent filtration through a 0.22 μm pore size membrane, and then 20 μl of the solution was injected into a high performance liquid chromatographer for analysis (HPLC, Waters model 2695) each time; the analyses were carried out in combination with UV light—Visible light sensor of Waters model 2487, and a silicon-based reverse phase C-18 column (Cosmosil 5C18-MS-II, 5 μm, 4.6×250 mm, Nacalai Tesque, Inc., Kyoto, Japan) was used for analyzing the marker components of P. quinquefolium in the solution. The marker components of P. quinquefolium tested in the experiment included ginsenoside Rb1, ginsenoside Rg1, ginsenoside Rc, ginsenoside Rd, and ginsenoside Re; the detection wavelength of UV light was 203 ηm. The solution of 15% aqueous phosphoric acid (H3PO4)—acetonitrile (CH3CN) (81:19 to 60:40) was used as the moving phase, and the moving phase was analyzed at 25° C. and 1.0 ml/min of flow velocity after being filtered with a 0.45 μm filtration membrane, so as to measure the concentration of the marker components in samples of P. quinquefolium that received various dosages of gamma irradiation.

The mark [3] stands for this setting: P. quinquefolium samples containing 2 ppm PCNB, 20 kGy.
[4] abbreviates: 0 kGy gamma irradiation (control group).

The structures appear in SMILES notation.

Consider `O=[N+]([O-])c1c(Cl)c(Cl)c(Cl)c(Cl)c1Cl` [PCNB, pentachloronitrobenzene], for which, in data set [1] (20 kGy), the “concentration of the remaining PCNB” value is 0.056 ppm and the “concentration of the remaining PCNB as compared to before treatment” value is reported as 2.79%. Also, in data set [1] (25 kGy), the “concentration of the remaining PCNB” value amounted to 0.008 ppm and the “concentration of the remaining PCNB as compared to before treatment” value amounted to 0.86%. For the same molecule, in data set [1] (setting [3]), the “PCNB concentration as % of the original concentration” value is 4.01% and the PCNB concentration remaining amounted to 0.08 ppm.

Consider `CC(C)=CCC[C@](C)(O[C@@H]1O[C@H](CO)[C@@H](O)[C@H](O)[C@H]1O)[C@H]1CC[C@]2(C)[C@@H]1[C@H](O)C[C@@H]1[C@@]3(C)CC[C@H](O)C(C)(C)[C@@H]3[C@@H](O[C@@H]3O[C@H](CO)[C@@H](O)[C@H](O)[C@H]3O[C@@H]3O[C@@H](C)[C@H](O)[C@@H](O)[C@H]3O)C[C@]12C` [Re, ginsenoside Re], for which the “concentration of marker components of P. quinquefolium (ginsenoside)” value in data set [2] (setting [4]) is reported as 15.98 ± 0.50 mg/g; in data set [2] (10 kGy gamma irradiation), 15.79 ± 0.21 mg/g; in data set [2] (15 kGy gamma irradiation) it was 15.04 ± 0.33 mg/g; in data set [2] (20 kGy gamma irradiation) it was 14.53 ± 0.14 mg/g. Also, in data set [2], the “effect of gamma irradiation on concentration of marker components” value is recorded as “would not affect”.

As to `CC(C)=CCC[C@](C)(O[C@@H]1O[C@H](CO)[C@@H](O)[C@H](O)[C@H]1O)[C@H]1CC[C@]2(C)[C@@H]1[C@H](O)C[C@@H]1[C@@]3(C)CC[C@H](O)C(C)(C)[C@@H]3[C@@H](O[C@@H]3O[C@H](CO)[C@@H](O)[C@H](O)[C@H]3O)C[C@]12C` [Rg1, ginsenoside Rg1], the “concentration of marker components of P. quinquefolium (ginsenoside)” value in data set [2] (setting [4]) is 1.56 ± 0.09 mg/g; in data set [2] (10 kGy gamma irradiation) it was 1.56 ± 0.06 mg/g; in data set [2] (15 kGy gamma irradiation), 1.47 ± 0.03 mg/g; in data set [2] (20 kGy gamma irradiation) it was 1.43 ± 0.02 mg/g. Also, in data set [2], the “effect of gamma irradiation on concentration of marker components” value is “would not affect”.
